Columns and labels:
[1] = system: Akt phosphorylation; assay: Akt Phosphorylation Assay (western blot), Panc-1; type: cell-based, human; conditions: at 10 μM, * = activation
Procedure, shortened: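 Phospho-Akt (Ser473) was measured by western blot in lysates of KRas G12D Panc-1 cells exposed to test compound for 6 h at 37 °C, either at 10 μM final with 0.3% DMSO or as serial dilutions for IC50. One format used overnight 0.5% FBS starvation followed by a 15 min pulse of 1.5 ng/ml EGF. The other used cells in 10% FBS with no stimulation.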

[2] = system: IL6; assay: IL-6 Quantification Assay (ELISA), LPS-stimulated RAW 264.7; type: cell-based; parameters: inhibition: dose or concentration left out as unconfirmed; conditions: Mus musculus, RAW264.7; read-out: IL-6: % inh.
[3] = system: TNF-alpha; assay: TNF-alpha Quantification Assay (ELISA), LPS-stimulated RAW 264.7; type: cell-based; conditions: Mus musculus, RAW264.7; at 10 μM; read-out: TNFα: % inh.
[4] = system: KRas G12C mutant; assay: Ras GTP Binding Domain Inhibition Assay (Ras Superfamily Assay); conditions: 20 μM compound; for KRas G12C mutant + SOS: % inh.: with SOS; for KRas G12C mutant: % inh.: without SOS
Procedure, shortened: (§1)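 Binding of 100 nM fluorescent GTP (Cy3 or Cy5, 45 min, room temperature) was read after washes from plate-captured His-tagged protein. Beforehand, compounds at 20 μM or in dilution series for IC50 sat 3 h on the protein in Tris buffer pH 7.4 or 7.0 with 1% DMSO, Sos GEF optionally added for the last hour.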

[5] = system: KRas G12D mutant; assay: as above; conditions: 20 μM compound; for KRas G12D mutant + SOS: % inh.: with SOS; for KRas G12D mutant: % inh.: without SOS
Procedure, shortened: as §1

[6] = system: KRas Q61H mutant; assay: as above; conditions: 20 μM compound; for KRas Q61H mutant + SOS: % inh.: with SOS; for KRas Q61H mutant: % inh.: without SOS
Procedure, shortened: as §1

[7] = system: KRas wild type; assay: as above; conditions: 20 μM compound; for KRas wild type + SOS: % inh.: with SOS; for KRas wild type: % inh.: without SOS
Procedure, shortened: as §1

[8] = target: T1, Rac-1 (Homo sapiens, UniProt P63000); assay: as above; conditions: read-out: Rac-1: % inh.
T1 construct: made in house
Procedure, shortened: as §1

[9] = target: T2, Rho-A (Homo sapiens, UniProt P61586); assay: as above; conditions: read-out: Rho-A: % inh..
T2 construct: made in house
T2 sequence (P61586 whole entry): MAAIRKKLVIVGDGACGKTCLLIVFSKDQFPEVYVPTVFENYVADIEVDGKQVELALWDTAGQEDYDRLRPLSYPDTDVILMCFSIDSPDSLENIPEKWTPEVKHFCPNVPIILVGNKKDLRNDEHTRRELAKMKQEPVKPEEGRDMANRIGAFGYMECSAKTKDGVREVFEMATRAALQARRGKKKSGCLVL
Procedure, shortened: as §1

Compound	% inh of Akt phosphorylation in Panc-1 [1]	inhibition [2]	inhibition at 10 µM [3]	KRas G12C mutant + SOS: % inh. [4]	KRas G12C mutant: % inh. [4]	KRas G12D mutant + SOS: % inh. [5]	KRas G12D mutant: % inh. [5]	KRas Q61H mutant + SOS: % inh. [6]	KRas Q61H mutant: % inh. [6]	KRas wild type + SOS: % inh. [7]	KRas wild type: % inh. [7]	inhibition at 20 µM [8]	inhibition at 20 µM [9]
Cc1c(-c2ccn(C(C)C)n2)cn2nc(-c3nccn3C)nc(Nc3nnc(C4CC4)o3)c12 [Compound 67, 5-Cyclopropyl-N-(6-(1-isopropyl-1H-pyrazol-3-yl)-5-methyl-2-(1-methyl-1H-imidazol-2-yl)pyrrolo[2,1-f][1,2,4]triazin-4-yl)-1,3,4-oxadiazol-2-amine]	D* (85-100% activation)	75 to 100%	50 to 74%	B (B = 26-49% inhibition)	C (C = 50-75% inhibition)	C (C = 50-75% inhibition)	C (C = 50-75% inhibition)	C (C = 50-75% inhibition)	C (C = 50-75% inhibition)	C (C = 50-75% inhibition)	C (C = 50-75% inhibition)	50 to 75%	76 to 100%
COCCNc1nc(-c2nccn2C)nn2cc(-c3ccn(C(C)C)n3)c(C(C)C)c12 [Compound 35, 5-Isopropyl-6-(1-isopropyl-1H-pyrazol-3-yl)-N-(2-methoxyethyl)-2-(1-methyl-1H-imidazol-2-yl)pyrrolo[2,1-f][1,2,4]triazin-4-amine]	0 (0% inhibition)	25 to 49%	0%	0 (0 = 0% inhibition)	A (A = 1-25% inhibition)	0 (0 = 0% inhibition)	0 (0 = 0% inhibition)	A (A = 1-25% inhibition)	A (A = 1-25% inhibition)	A (A = 1-25% inhibition)	A (A = 1-25% inhibition)	0%	1 to 25%

— patent US12459951B2, “Compounds that interact with RAS superfamily proteins for treatment of cancers, inflammatory diseases, rasopathies, and fibrotic disease” (SHY Therapeutics, LLC, priority 2022, dated 2025)
